Results from patent US20070142437A1, “CHEMICAL COMPOUNDS” (priority 2005, published 2007).

Assays:
Format in all cases: biochemical
hVEGFR2 = hVEGFR2 (Homo sapiens, UniProt P35968); test: VEGFR2 HTRF assay; conditions: Inhibition of VEGFR2
Experimental: The compounds of the present invention elicit important and measurable pharmacological responses. Different compounds from this class are particularly effective at inhibiting VEGFR2 enzymes, as described by the VEGFR2 HTRF assay below, at concentrations, which range from 0.0001 to 1 μM.
The assays were performed in 96-well black plates. 10 nM hVEGFR2 was used to phosphorylate 0.36 μM peptide (Biotin-Ahx-EEEEYFELVAKKKK) in the presence of 75 μM ATP, 5 mM MgCl2, 0.3 mM DTT, 0.1 mg/ml BSA, and 0.1 M HEPES (pH 7.5). 10 μl 0.5 M EDTA was added to reactions as negative controls. The 50 μl kinase reaction with or without inhibitors in 5% DMSO was carried out at room temperature for 45 minutes, then stopped by 40 μl of 125 mM EDTA. 2.4 μg/ml Streptavidin-APC and 0.15 μg/ml Eu-α-pY, in the presence of 0.1 mg/ml BSA, 0.1 M HEPES (pH7.5), were added to a final volume of 140 μl. The plate was incubated for 10 min at room temperature (22° C.) and read on the Victor with the time resolved fluorescence mode by exciting at 340 nm and reading the emission at 665 nm.
• Peptide from Synpep (Dublin, Calif.) • ATP, MgCl2, DTT, BSA, HEPES, EDTA, DMSO from Sigma Streptavidin-APC from Molecular Probes (Eugene, Oreg.) • Eu-α-pY from EG&G Wallac (Gaithersburg, Md.)

CDK2 = target: T1, CDK2 (Homo sapiens, UniProt P24941); test: CDK2 substrate phosphorylation assay (biotinylated peptide, 32P-ATP); conditions: Inhibition of CDK2
T1 construct: made in house
Experimental: (§1) The compounds of the present invention have valuable pharmacologic properties. Different compounds from this class are particularly effective at inhibiting CDK2 and/or CDK4 enzymes at concentrations, which range from 0.0001 to 1 μM and additionally show specificity relative to other kinases. Substrate phosphorylation assays were carried out as follows:
Cyclin dependent protein kinase 2 assays utilized the peptide Biotin-aminohexyl-ARRPMSPKKKA-NH2 as phosphoryl group acceptor. CDK2 was expressed utilizing a baculovirus expression system and was partially purified to comprise 20-80% of total protein, with no detectable competing reactions present. Typically, assays were performed by incubating enzyme (0.2-10 nM), with and without inhibitor, peptide substrate (1-10 nM), [g-^32P]ATP (1-20 nM), and 10-20 mM Mg^2+ for periods of time generally within the range 10-120 minutes. Reactions were terminated with 0.2-2 volumes of either 20% acetic acid or 50-100 mM EDTA buffered to pH 7 (substrate consumption <20%). The buffer employed in enzyme assay was 100 mM HEPES pH 7.5 containing 0.1 mg/mL BSA and 5% DMSO. Inhibitors were diluted in 100% DMSO prior to addition into the assay. Detection of peptide phosphorylation was accomplished by scintillation counting following either collection of peptide onto phosphocellulose filters (for reactions stopped with acetic acid), collection of peptide in wells of 96 well plates coated with Streptavidin (Pierce) (reactions were stopped with EDTA), or addition of Avidin coated Scintillant impregnated beads (Scintillation Proximity Assays from Amersham, reactions were stopped with EDTA). Counts detected by any of these methodologies minus the appropriate background (assays with additional 40 mM EDTA or lacking peptide substrate) were assumed to be proportional to the reaction initial rates, and IC50s were determined by a least squares fit to the equation CPM=Vmax*(1−([I]/(K+[I])))+nsb, or −pIC50s were determined by a fit to the equation CPM=nsb+(Vmax−nsb)/(1+(x/10^x−pIC50)), where nsb are the background counts. Filters are washed four times with 75 mM phosphoric acid. Radioactivity was determined by liquid scintillation counting.

CDK4 = target: T2, CDK4 (Homo sapiens, UniProt P11802); test: CDK4 substrate phosphorylation assay (Rb protein, 33P-ATP); conditions: Inhibition of CDK4
T2 construct: made in house
T2 sequence (P11802 whole entry, species assumed): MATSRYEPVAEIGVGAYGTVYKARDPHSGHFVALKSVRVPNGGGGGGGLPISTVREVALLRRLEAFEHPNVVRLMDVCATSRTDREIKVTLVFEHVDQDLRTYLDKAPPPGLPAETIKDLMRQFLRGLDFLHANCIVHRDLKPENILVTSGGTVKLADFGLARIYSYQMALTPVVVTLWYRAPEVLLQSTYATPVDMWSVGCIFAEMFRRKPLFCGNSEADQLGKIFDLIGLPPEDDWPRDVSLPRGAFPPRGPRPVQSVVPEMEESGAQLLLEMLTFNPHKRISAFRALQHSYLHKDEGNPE
T2 sequence (P24385 whole entry partner, species assumed): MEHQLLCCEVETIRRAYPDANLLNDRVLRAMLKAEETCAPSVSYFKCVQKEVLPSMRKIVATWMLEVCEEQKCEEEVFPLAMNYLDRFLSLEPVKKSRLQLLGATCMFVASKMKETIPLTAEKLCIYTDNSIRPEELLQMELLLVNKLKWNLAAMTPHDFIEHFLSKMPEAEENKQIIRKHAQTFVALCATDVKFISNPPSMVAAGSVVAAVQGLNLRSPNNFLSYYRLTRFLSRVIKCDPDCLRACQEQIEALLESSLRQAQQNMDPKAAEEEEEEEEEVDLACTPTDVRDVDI
Experimental: as §1
Cyclin D1 and cyclin-dependent kinase 4 were expressed utilizing a baculovirus expression system. The catalytic activity of CDK4 protein was assayed by measuring the phosphorylation of Rb protein. A truncated Rb protein (residues 773-928 of the native retinoblastoma protein, fused to glutathione S-transferase to facilitate purification) was used as the phosphoryl acceptor. The assay conditions were 100 mM HEPES (N-[2-hydroxyethyl]piperzine-N′-[2-ethanesulfonic acid]), pH 7.5, 0.5 μM GST-Rb protein, 1 μCi/mL [^33P]-ATP (1 nM-20 μM), 5-20 mM MgCl2, 2.5 mM EDTA, 1 mM dithiotheitol, 0.2 mg/mL bovine serum albumin, 2% (v/v) dimethyl sulfoxide (DMSO), CDK4 enzyme (5-50 nM) in a final volume of 50 μL. Reactions were incubated for time periods of 10-60 min at 30° C. and terminated by the addition of 50 μL quench (1 mM ATP/100 mM EDTA, pH 7.0). Detection of protein phosphorylation was accomplished by scintillation counting following collection of protein in 96 well plates coated with Glutathione or trapping of protein onto phosphocellulose filters. Counts detected by these methodologies minus the appropriate background were assumed to be proportional to the reaction initial rates. IC50 values were determined by measuring enzyme activity in the presence of different inhibitor concentrations (0.1 nM to 50 μM). IC50s were determined by a least squares fit to the equation CPM=Vmax*(1−([I]/(K+[I])))+nsb, or pIC50s were determined by a fit to the equation CPM=nsb+(Vmax−nsb)/(1+(x/10^x−pIC50)), where nsb are the background counts.

Sequence of hVEGFR2 (P35968 20-1356): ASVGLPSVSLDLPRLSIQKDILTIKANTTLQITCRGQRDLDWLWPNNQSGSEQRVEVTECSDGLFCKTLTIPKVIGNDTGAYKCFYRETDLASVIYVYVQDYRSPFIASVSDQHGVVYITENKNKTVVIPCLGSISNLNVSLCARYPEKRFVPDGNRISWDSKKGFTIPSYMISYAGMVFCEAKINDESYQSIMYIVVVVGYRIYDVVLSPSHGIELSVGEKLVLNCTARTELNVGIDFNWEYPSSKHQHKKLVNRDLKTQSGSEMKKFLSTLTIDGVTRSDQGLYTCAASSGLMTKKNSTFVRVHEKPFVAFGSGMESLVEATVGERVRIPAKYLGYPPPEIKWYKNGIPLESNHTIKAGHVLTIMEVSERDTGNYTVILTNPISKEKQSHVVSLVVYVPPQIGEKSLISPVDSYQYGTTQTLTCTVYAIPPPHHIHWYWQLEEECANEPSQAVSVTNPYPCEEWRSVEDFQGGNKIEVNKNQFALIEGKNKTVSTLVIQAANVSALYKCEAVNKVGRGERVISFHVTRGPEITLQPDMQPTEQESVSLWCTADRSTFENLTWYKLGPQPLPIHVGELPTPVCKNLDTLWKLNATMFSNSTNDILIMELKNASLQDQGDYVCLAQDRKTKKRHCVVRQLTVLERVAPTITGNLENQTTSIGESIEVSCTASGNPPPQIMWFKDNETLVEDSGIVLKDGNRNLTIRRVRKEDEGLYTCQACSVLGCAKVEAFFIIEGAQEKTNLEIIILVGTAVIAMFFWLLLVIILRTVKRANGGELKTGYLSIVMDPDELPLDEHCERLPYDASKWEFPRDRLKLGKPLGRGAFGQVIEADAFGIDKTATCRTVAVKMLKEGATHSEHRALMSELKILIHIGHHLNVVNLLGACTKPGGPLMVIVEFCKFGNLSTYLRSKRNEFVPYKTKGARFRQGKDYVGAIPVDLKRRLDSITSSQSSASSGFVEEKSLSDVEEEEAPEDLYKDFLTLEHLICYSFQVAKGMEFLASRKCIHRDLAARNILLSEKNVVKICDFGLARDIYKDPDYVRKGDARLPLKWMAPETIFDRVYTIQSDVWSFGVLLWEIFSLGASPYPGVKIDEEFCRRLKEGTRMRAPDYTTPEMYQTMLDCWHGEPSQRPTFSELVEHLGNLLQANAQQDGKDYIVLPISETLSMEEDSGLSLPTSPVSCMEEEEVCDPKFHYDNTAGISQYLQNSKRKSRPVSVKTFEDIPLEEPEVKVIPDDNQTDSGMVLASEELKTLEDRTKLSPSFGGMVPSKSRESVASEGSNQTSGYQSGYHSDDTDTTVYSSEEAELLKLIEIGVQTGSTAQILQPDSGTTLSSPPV

Row | Structure (SMILES) | IC50 (hVEGFR2) | IC50 (CDK2) | IC50 (CDK4)
1 | CCOc1cccc(-c2cnc(Nc3ccc(N4CCN(C)CC4)cc3)o2)c1 [Example 5, 5-(3-Ethoxyphenyl)-N-[4-(4-methylpiperazin-1-yl)phenyl]-1,3-oxazol-2-amine] | < 1000 nM | < 1000 nM | < 100 nM
2 | CC(C)Oc1cccc(-c2cnc(Nc3ccc(N4CCN(C)CC4)cc3)o2)c1 [Example 12, 5-(3-Isopropoxyphenyl)-N-[4-(4-methylpiperazin-1-yl)phenyl]-1,3-oxazol-Z -amine] | < 1000 nM | < 100 nM | < 100 nM
3 | COc1cccc(-c2cnc(Nc3ccc(N4CC(C)NC(C)C4)cc3)o2)c1 (stereo not drawn) [Example 23, N-[4-(3,5-dimethylpiperazin-1-yl)phenyl]-5-(3-methoxyphenyl)-1,3-oxazol-2-amine] | < 1000 nM | < 100 nM | < 1000 nM
4 | CN1CCN(c2ccc(Nc3ncc(-c4cccc(OC5CCCC5)c4)o3)cc2F)CC1 [Example 28, 5-[3-(Cyclopentyloxy)phenyl]-N-[3-fluoro-4-(4-methylpiperazin-1-yl)phenyl]-1,3-oxazol-2-amine] | < 100 nM | < 100 nM | < 100 nM
5 | CCN(CC)c1ccc(Nc2ncc(-c3cccc(OC4CCCC4)c3)o2)cn1 [Example 36, N^5-{5-[3-(cyclopentyloxy)phenyl]-1,3-oxazol-2-yl}-N^2,N^2-diethylpyridine-2,5-diamine] | < 10000 nM | < 1000 nM | < 1000 nM
6 | CCN(CC)Cc1ccc(Nc2ncc(-c3cccc(OC)c3)o2)cc1 [Example 45, N-{4-[(diethylamino)methyl]phenyl}-5-(3-methoxyphenyl)-1,3-oxazol-2-amine] | < 1000 nM | < 1000 nM | < 100 nM
7 | COc1cccc(-c2cnc(Nc3ccc(CCN(C)C)cc3)o2)c1 [Example 42] | < 1000 nM | < 1000 nM | < 100 nM
8 | CN1CCN(c2ccc(Nc3ncc(-c4cccc(OC5CCCC5)c4)o3)cc2C(F)(F)F)CC1 [Example 25, 5-[3-(Cyclopentyloxy)phenyl]-N-[4-(4-methylpiperazin-1-yl)-3-(trifluoromethyl)phenyl]-1,3-oxazol-2-amine] | < 1000 nM | < 100 nM | < 100 nM
9 | CN1CCN(c2ccc(Nc3ncc(-c4ccccc4)o3)cc2)CC1 [Example 3, N-[4-(4-methylpiperazin-1-yl)phenyl]-5-phenyl-1,3-oxazol-2-amine] | < 1000 nM | < 10000 nM | < 1000 nM
10 | CCN1CCN(c2ccc(Nc3ncc(-c4cccc(OC)c4)o3)cc2)CC1 [Example 6, N-[4-(4-Ethylpiperazin-1-yl)phenyl]-5-(3-methoxyphenyl)-1,3-oxazol-2-amine] | < 1000 nM | < 1000 nM | < 100 nM
11 | COc1cccc(-c2cnc(Nc3ccc(N4CCCCC4)nc3)o2)c1 [Example 33, N-[5-(3-methoxyphenyl)-1,3-oxazol-2-yl]-6-piperdin-1-ylpyridin-3-amine] | – | – | < 10000 nM
12 | COc1cccc(-c2cnc(Nc3ccc(C(=O)N4CCN(C)CC4)cc3)o2)c1 [Example 47, 5-(3-methoxyphenyl)-N-{4-[(4-methylpiperazin-1-yl)carbonyl]phenyl}-1,3-oxazol-2-amine] | < 1000 nM | < 1000 nM | < 1000 nM
13 | COc1cccc(-c2cnc(Nc3ccc(N4CCN(C)CC4)cc3)o2)c1 [Example 4, 5-(3-Methoxyphenyl)-N-[4-(4-methylpiperazin-1-yl)phenyl]-1,3-oxazol-2-amine] | < 1000 nM | < 1000 nM | < 100 nM
14 | Oc1cccc(-c2cnc(Nc3ccccc3)o2)c1 [Example 2, 3-(2-anilino-1,3-oxazol-5-yl)phenol] | < 1000 nM | < 1000 nM | < 1000 nM
15 | COc1cccc(-c2cnc(Nc3ccc(N4CCN(C)CC4)cc3C)o2)c1 [Example 24, 5-(3-methoxyphenyl)-N-[2-methyl-4-(4-methylpiperazin-1-yl)phenyl]-1,3-oxazol-2-amine] | < 1000 nM | < 10000 nM | < 1000 nM
16 | CC(C)COc1cccc(-c2cnc(Nc3ccc(N4CCN(C)CC4)cc3)o2)c1 [Example 14, 5-(3-Isobutoxyphenyl)-N-[4-(4-methylpiperazin-1-yl)phenyl]-1,3-oxazol-2-amine] | < 1000 nM | < 1000 nM | < 100 nM
17 | CCN(CC)c1ccc(Nc2ncc(-c3cccc(OC)c3)o2)cn1 [Example 35, N^2,N^2-diethyl-N^5-[5-(3-methoxyphenyl)-1,3-oxazol-2-yl]pyridine-2,5-diamine] | < 10000 nM | < 10000 nM | < 10000 nM
18 | COc1cccc(-c2cnc(Nc3ccc(-n4ccnc4)nc3)o2)c1 [Example 32, 6-(1H-imidazol-1-yl)-N-[5-(3-methoxyphenyl)-1,3-oxazol-2-yl]pyridin-3-amine] | – | – | < 10000 nM
19 | CN(C)Cc1ccc(Nc2ncc(-c3cccc(OC4CCCC4)c3)o2)cc1 [Example 41, 5-[3-(cyclopentyloxy)phenyl]-N-{4-[(dimethylamino)methyl]phenyl}-1,3-oxazol-2-amine] | < 1000 nM | – | < 100 nM
20 | CN1CCN(c2ccc(Nc3ncc(-c4cccc(OC5CCCCC5)c4)o3)cc2)CC1 [Example 18, 5-[3-(cyclohexyloxy)phenyl]-N-[4-(4-methylpiperazin-1-yl)phenyl]-1,3-oxazol-2-amine] | < 1000 nM | < 100 nM | < 100 nM
21 | CN1CCN(c2ccc(Nc3ncc(-c4cccc(OC5CCCC5)c4)o3)cc2Cl)CC1 [Example 26, N-[3-Chloro-4-(4-methylpiperazin-1-yl)phenyl]-5-[3-(cyclopentyloxy)phenyl]-1,3-oxazol-2-amine] | < 1000 nM | < 100 nM | < 100 nM
22 | CCCN1CCC(c2csc(Nc3ncc(-c4cccc(OC)c4)o3)n2)CC1 [Example 49, 5-(3-methoxyphenyl)-N-[4-(1-propylpiperidin-4-yl)-1,3-thiazol-2-yl]-1,3-oxazol-2-amine] | – | – | < 1000 nM
23 | COc1cccc(-c2cnc(Nc3ccc(N4CCCCC4)cc3)o2)c1 [Example 10, 5-(3-Methoxyphenyl)-N-(4-piperidin-1-ylphenyl)-1,3-oxazol-2-amine] | < 1000 nM | – | < 10000 nM
24 | CN1CCN(c2ccc(Nc3ncc(-c4cccc(O)c4)o3)cc2)CC1 [Example 29, 3-(2-{[4-(4-methylpiperazin-1-yl)phenyl]amino}-1,3-oxazol-5-yl)phenol] | < 1000 nM | – | < 100 nM
